How the values were obtained:
[1] = system: male rats; settings: treatment of male rats; cited from earlier work
[2] = system: Male Sprague-Dawley rats; experiment: Effect on prostate weight; assay type: in vivo
Description: Male Sprague-Dawley rats, three months of age are administered by subcutaneous injection either vehicle (10% ethanol in water), estradiol (30 µg/kg), testosterone (1 mg/kg) or a compound of formula I daily for 14 days (n=6/group). After 14 days the animals are sacrificed, the prostate is removed, and the wet prostate weight is determined. Mean weight is determined and statistical significance (p<0.05) is determined compared to the vehicle-treated group using Student's t-test.

[3] = system: adult ORX rats; experiment: Male osteoporosis model: total serum cholesterol; assay type: in vivo, Sprague-Dawley male rats; settings: for decrease of total serum cholesterol: ORX rats
Description: (§1) Fifty Sprague-Dawley male rats were sham-operated (n=10) or ORX (n=40) at 10 months of age. Ten rats were autopsied on day 0 as basal controls. ORX rats were treated (daily p.o.) with either vehicle (10% ethanol in water) or (-)Cis-6-phenyl-5-[4-(2-pyrrolidin-1-yl-ethoxy)phenyl]-5,6,7,8-tetrahydronaphthalen-2-ol at 1, 10, or 100 µg/kg/day for 60 days. There were 10 rats per each subgroup. all rats were given subcutaneous injections with 10 mg/kg of calcein (Sigma Chemical Co., St. Louis, MO) on 13 and 3 days before autopsy. • 1) Total serum cholesterol: Total serum cholesterol was determined using a high performance cholesterol colormetic assay (Boehringer Mannheim Biochemicals, Indianapolis, IN). • 2) Prostate weight: The prostate weight was determined immediately at autopsy. • 3) Femoral Bone Mineral Measurements: The right femur from each rat was removed at autopsy and scanned using dual energy x-ray absorptiometry (DEXA, QDR 1000/W, Hologic Inc., Waltham, MA) equipped with "Regional High Resolution Scan" software (Hologic Inc., Waltham, MA). The scan field size is 5.08 x 1.902 cm, resolution was 0.0254 x 0.0127 cm and scan speed is 7.25 mim/second. The femoral scan images were analyzed and bone area, bone mineral content (BMC), and bone mineral density (BMD) of whole femora (WF), distal femoral metaphyses (DFM), femoral shaft (FS) were determined according to the method described in H. Z. Ke et al., Droloxifene, a New Estrogen Antagonist/Agonist, Prevents Bone Loss in Ovariectomized Rats. ENDOCRINOLOGY 136;2435-2441, 1995. • 4) Third Lumbar Vertebral Body (LV3) Histomorphometry: The LV3 was removed at autopsy, dissected free of muscle, fixed in 70% ethanol, dehydrated in graded concentrations of ethanol, defatted in acetone, then embedded in methyl methacrylate (Eastman Organic Chemicals, Rochester, NY). Longitudinal sections of LV3 at 4 and 10 µm thickness were cut using Reichert-Jung Polycut S microtome. One 4 µm and one 10 µm sections from each rat will be used for cancellous bone histomorphometry. […]

[4] = system: OVX rats; experiment: Prevention of bone loss in OVX rats (female bone mineral density, DEXA); assay type: in vivo; settings: Rattus norvegicus, 672 h, oral, read-out: oral ED50, prevents bone loss in OVX rats
Source text: Bone mineral density, a measure of bone mineral content, accounts for greater than 80% of a bone's strength. Loss of bone mineral density with age and/or disease reduces a bone's strength and renders it more prone to fracture. Bone mineral content is accurately measured in people and animals by dual x-ray absorptiometry (DEXA) such that changes as little as 1% can be quantified. We have utilized DEXA to evaluate changes in bone mineral density due to estrogen deficiency following ovariectomy (surgical removal of ovaries) and treatment with vehicle, estradiol (E2), keoxifen (raloxifen), or other estrogen agonists. The purpose of these studies is to evaluate the ability of the compounds of this invention to prevent estrogen deficiency bone loss as measured by DEXA. Female (S-D) rats 4-6 months of age undergo bilateral ovariectomy or sham surgery and allowed to recover from anesthesia. […] (Hologic, Inc. Waltham, MA) and bone mineral density is determined in the distal portion of the femur at a site from 1cm to 2cm from the distal end of the femur using the high resolution software supplied by Hologic. Bone mineral density is determined by dividing the bone mineral content by the bone area of the distal femur. […] Mean bone mineral density is obtained for each animal and statistical differences (p<0.05) from the vehicle-treated ovariectomy and sham-operated group were determined by t test.

[5] = system: adult ORX rats; experiment: Male osteoporosis model: compression test of fifth lumbar vertebral body (LV5); assay type: in vivo, Sprague-Dawley male rats; settings: for Maximal Load of LV5: ORX rats, daily p.o. 60 days, p < 0.05 vs. ORX
Description: as §1, with “ORX rats were treated (daily p.o.) with either vehicle (10% ethanol in water) or (-)Cis-6-phenyl-5-[4-(2-pyrrolidin-1-yl-ethoxy)phenyl]-5,6,7,8-tetrahydronaphthalen-2-ol at 1, 10, or 100 µg/kg/day for 60 days.” left out, “NY).” for “NY). Longitudinal sections of LV3 at 4 and 10 µm thickness were cut using Reichert-Jung Polycut S microtome. One 4 µm and one 10 µm sections from each rat will be used for cancellous bone histomorphometry.”
• 1. […] A compression test was used to determine the mechanical properties of LV5, as described by Mosekilde et al. (Mosekilde, L., Danielsen, C. C., Gasser, J. The effect on vertebral bone mass and strength of long term treatment with antiresorptive agents, human PTH (1-38), and combination therapy, assessed in aged ovariectomized rats. Endocrinol 1994; 134:2126-2134). […] The maximal load and stiffness were calculated from the load-displacement curve.

[6] = Male osteoporosis model: body weight; assay type: in vivo, Sprague-Dawley male rats; settings: 1, 10, 100 µg/kg/day p.o. for 60 days; compared to both sham and ORX controls
Description: (§2) Fifty Sprague-Dawley male rats were sham-operated (n=10) or ORX (n=40) at 10 months of age. Ten rats were autopsied on day 0 as basal controls. ORX rats were treated (daily p.o.) with either vehicle (10% ethanol in water) or (-)Cis-6-phenyl-5-[4-(2-pyrrolidin-1-yl-ethoxy)phenyl]-5,6,7,8-tetrahydronaphthalen-2-ol at 1, 10, or 100 µg/kg/day for 60 days. There were 10 rats per each subgroup. all rats were given subcutaneous injections with 10 mg/kg of calcein (Sigma Chemical Co., St. Louis, MO) on 13 and 3 days before autopsy. • 1) Total serum cholesterol: Total serum cholesterol was determined using a high performance cholesterol colormetic assay (Boehringer Mannheim Biochemicals, Indianapolis, IN). • 2) Prostate weight: The prostate weight was determined immediately at autopsy. • 3) Femoral Bone Mineral Measurements: The right femur from each rat was removed at autopsy and scanned using dual energy x-ray absorptiometry (DEXA, QDR 1000/W, Hologic Inc., Waltham, MA) equipped with "Regional High Resolution Scan" software (Hologic Inc., Waltham, MA). The scan field size is 5.08 x 1.902 cm, resolution was 0.0254 x 0.0127 cm and scan speed is 7.25 mim/second. […]

[7] = system: adult ORX rats; experiment: Male osteoporosis model: prostate weight and histology; assay type: in vivo, Sprague-Dawley male rats; settings: 10 and 100 µg/kg/d p.o. for 60 days; compared to ORX controls
Description: as §2

[8] = system: adult ORX rats; experiment: Male osteoporosis model: third lumbar vertebral body (LV3) histomorphometry; assay type: in vivo, Sprague-Dawley male rats; settings: for Activation Frequency: ORX rats, daily p.o. 60 days
Description: Fifty Sprague-Dawley male rats were sham-operated (n=10) or ORX (n=40) at 10 months of age. Ten rats were autopsied on day 0 as basal controls. […] There were 10 rats per each subgroup. all rats were given subcutaneous injections with 10 mg/kg of calcein (Sigma Chemical Co., St. Louis, MO) on 13 and 3 days before autopsy. • 1) Total serum cholesterol: Total serum cholesterol was determined using a high performance cholesterol colormetic assay (Boehringer Mannheim Biochemicals, Indianapolis, IN). • 2) Prostate weight: The prostate weight was determined immediately at autopsy. • 3) Femoral Bone Mineral Measurements: The right femur from each rat was removed at autopsy and scanned using dual energy x-ray absorptiometry (DEXA, QDR 1000/W, Hologic Inc., Waltham, MA) equipped with "Regional High Resolution Scan" software (Hologic Inc., Waltham, MA). The scan field size is 5.08 x 1.902 cm, resolution was 0.0254 x 0.0127 cm and scan speed is 7.25 mim/second. The femoral scan images were analyzed and bone area, bone mineral content (BMC), and bone mineral density (BMD) of whole femora (WF), distal femoral metaphyses (DFM), femoral shaft (FS) were determined according to the method described in H. Z. Ke et al., Droloxifene, a New Estrogen Antagonist/Agonist, Prevents Bone Loss in Ovariectomized Rats. ENDOCRINOLOGY 136;2435-2441, 1995. • 4) Third Lumbar Vertebral Body (LV3) Histomorphometry: The LV3 was removed at autopsy, dissected free of muscle, fixed in 70% ethanol, dehydrated in graded concentrations of ethanol, defatted in acetone, then embedded in methyl methacrylate (Eastman Organic Chemicals, Rochester, NY). Longitudinal sections of LV3 at 4 and 10 µm thickness were cut using Reichert-Jung Polycut S microtome. One 4 µm and one 10 µm sections from each rat will be used for cancellous bone histomorphometry. The 4 µm sections were stained with modified Masson's Trichrome stain while the 10 µm sections remained unstained.
A Bioquant OS/2 histomorphometry system (R&M Biometrics, Inc., Nashville, TN) was used for the static and dynamic histomorphometric measurements of the secondary spongiosa of the proximal tibial metaphyses between 1.2 and 3.6 mm distal to the growth plate-epiphyseal junction. The first 1.2 mm of the tibial metaphyseal region need to be omitted in order to restrict measurements to the secondary spongiosa. The 4 µm sections will be used to determine indices related to bone volume, bone structure, and bone resorption, while the 10 µm sections will be used to determine indices related to bone formation and bone turnover.
• 1. Total metaphyseal area (TV, mm^2): metaphyseal area between 1.2 and 3.6 mm distal to the growth plate-epiphyseal junction. • 2. Trabecular bone area (BV, mm^2): total area of trabeculae within TV. • 3. Trabecular bone perimeter (BS, mm): the length of total perimeter of trabeculae. • 4. Trabecular bone volume (BV/TV,%): BV / TV x 100. • 5. Trabecular bone number (TBN,#/mm): 1.199 / 2 x BS / TV. • 6. Trabecular bone thickness (TBT, µm): (2000 / 1.199) x (BV / BS). • 7. Trabecular bone separation (TBS, µm): (2000 x 1.199) x (TV - BV).
• 1. Osteoclast number (OCN, #): total number of osteoclast within total metaphyseal area. • 2. […] (OCP, mm): length of trabecular perimeter covered by osteoclast. • 3. Osteoclast number/mm (OCN/mm, #/mm): OCN / BS. • 4. Percent osteoclast perimeter (%OCP,%): OCP / BS x 100.
• 1. Single-calcein labeled perimeter (SLS, mm): total length of trabecular perimeter labeled with one calcein label. • 2. Double-calcein labeled perimeter (DLS, mm): total length of trabecular perimeter labeled with two calcein labels. • 3. Inter-labeled width (ILW, µm): average distance between two calcein labels. • 4. Percent mineralizing perimeter (PMS,%):(SLS/2 + DLS) / BS x 100. • 5. Mineral apposition rate (MAR, µm/day): ILW / label interval. • 6. Bone formation rate/surface ref. (BFR/BS, µm^2/d/µm): (SLS/2 + DLS) x MAR / BS. • 7. […]

[9] = system: adult ORX rats; experiment: Male osteoporosis model: femoral bone mineral measurements (DEXA); assay type: in vivo, Sprague-Dawley male rats; settings: 10 or 100 µg/kg/day p.o. for 60 days; compared to ORX controls
Description: as §2

[10] = system: male rats; settings: 200 and 400 mg/kg/day; cited from earlier work
[11] = 10 or 100 µg/kg/day p.o. for 60 days, compared to ORX controls

## O=C(c1ccc(OCCN2CCCCC2)cc1)c1c(-c2ccc(O)cc2)sc2cc(O)ccc12 [raloxifene, 6-hydroxy-2-(4-hydroxyphenyl)-3-[4-(2-piperidinoethoxy)benzoyl] benzo[b] thiophene]
[1]
  ventral prostate: regression of the ventral prostate

## C[C@]12CC[C@@H]3c4ccc(O)cc4CC[C@H]3[C@@H]1CC[C@@H]2O [estrogen, estradiol]
[2]; 30 µg/kg s.c. daily for 14 days
  prostate weight compared to vehicle: significantly reduces prostate weight

## Oc1ccc2c(c1)CC[C@H](c1ccccc1)[C@@H]2c1ccc(OCCN2CCCC2)cc1 [(-)Cis-6-phenyl-5-[4-(2-pyrrolidin-1-yl-ethoxy)phenyl]-5,6,7,8-tetrahydronaphthalen-2-ol]
[3]; 10 µg/kg/d p.o. for 60 days
  decrease of total serum cholesterol: 46%
[3]; 100 µg/kg/d p.o. for 60 days
  decrease of total serum cholesterol: 68%
[3]; 1, 10, 100 µg/kg/day p.o. for 60 days, compared to both sham and ORX controls
  total serum cholesterol: dose-dependently decreased
[4]
  ED50: ~1 µg/kg
[5]; [11]
  age-related and ORX-induced decreases in maximal load: completely prevented
[5]; 10 µg dose group
  Maximal Load of LV5: 393 ± 27 N
[5]; 100 µg dose group
  Maximal Load of LV5: 393 ± 25 N
[6]
  body weight: dose-dependently decreased
[7]
  prostate histology parameters: no effect
  prostate weight: no effect
[8]; [11]
  age-related and ORX-induced decreases in TBV: completely prevented
  bone resorption: significantly decreased
  bone turnover: significantly decreased
[8]; 10 µg dose group
  Activation Frequency: 2.06 ± 0.28 #/year
[8]; 100 µg dose group, p < 0.05 vs. ORX
  Activation Frequency: 0.93 ± 0.08 # #/year
[8]; dose group printed as 1 mg, p < 0.05 vs. Sham
  Activation Frequency: 2.67 ±0.34 #/year
[9]
  age-related and ORX-induced decreases in DFBMD: completely prevented

## CC/C(=C(\c1ccccc1)c1ccc(OCCN(C)C)cc1)c1ccccc1 [tamoxifen, 1-(4-β-dimethylaminoethoxyphenyl)-1,2-diphenyl-but-1-ene]
[10]
  weights of the testes and secondary sex organs: reduces the weights of the testes and secondary sex organs

## C[C@]12CC[C@H]3[C@@H](CCC4=CC(=O)CC[C@@]43C)[C@@H]1CC[C@@H]2O [Testosterone, testosterone]
[2]; testosterone 1 mg/kg s.c. daily for 14 days
  prostate weight compared to vehicle: no effect

Reference: EP1004306A2, “Estrogen agonists/antagonists” (Pfizer Products Inc., priority 1998, dated 2000)
